Measured values from PubChem BioAssay AID2060499 (Molecular Pharmacology Branch, DTP, NCI, 2025).

System: 777334-354-R2-J4-PDC tumor spheroids with HUVEC/MSC, viability
Assay: Anticancer human tumor 777334-354-R2-J4-PDC patient-derived pancreatic adenocarcinoma cell line growth inhibition [GQUAD]
Conditions: for IC50: curve of first compound; for viability, T/C: stronger effect = lower value
How it was run: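 Viability of tumor cells grown as complex spheroids with endothelial and stromal cells, exposed to drug combinations. Top concentration at or near clinical Cmax (else 10 microM), diluted in half-log increments.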

[1] = second compound 0.0316 µM, first compound 0.0316 µM
[2] = second compound 0.0316 µM, first compound 0.1 µM
[3] = second compound 0.0316 µM, first compound 0.316 µM
[4] = second compound 0.0316 µM, first compound 1 µM
[5] = second compound 0.0316 µM, first compound 3.16 µM
[6] = second compound 0.0316 µM, first compound 10 µM
[7] = second compound 0.1 µM, first compound 0.0316 µM
[8] = second compound 0.1 µM, first compound 0.1 µM
[9] = second compound 0.1 µM, first compound 0.316 µM
[10] = second compound 0.1 µM, first compound 1 µM
[11] = second compound 0.1 µM, first compound 3.16 µM
[12] = second compound 0.1 µM, first compound 10 µM
[13] = second compound 0.316 µM, first compound 0.0316 µM
[14] = second compound 0.316 µM, first compound 0.1 µM
[15] = second compound 0.316 µM, first compound 0.316 µM
[16] = second compound 0.316 µM, first compound 1 µM
[17] = second compound 0.316 µM, first compound 3.16 µM
[18] = second compound 0.316 µM, first compound 10 µM
[19] = second compound 1 µM, first compound 0.0316 µM
[20] = second compound 1 µM, first compound 0.1 µM
[21] = second compound 1 µM, first compound 0.316 µM
[22] = second compound 1 µM, first compound 1 µM
[23] = second compound 1 µM, first compound 3.16 µM
[24] = second compound 1 µM, first compound 10 µM
[25] = second compound 3.16 µM, first compound 0.0316 µM
[26] = second compound 3.16 µM, first compound 0.1 µM
[27] = second compound 3.16 µM, first compound 0.316 µM
[28] = second compound 3.16 µM, first compound 1 µM
[29] = second compound 3.16 µM, first compound 3.16 µM
[30] = second compound 3.16 µM, first compound 10 µM
[31] = second compound 10 µM, first compound 0.0316 µM
[32] = second compound 10 µM, first compound 0.1 µM
[33] = second compound 10 µM, first compound 0.316 µM
[34] = second compound 10 µM, first compound 1 µM
[35] = second compound 10 µM, first compound 3.16 µM
[36] = second compound 10 µM, first compound 10 µM
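Also: spheroids exposed to compounds for 7 days before readout.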

`CC(C)(O)C1CCC(Nc2ccc3ncc(-c4cccc(C(F)(F)F)c4)n3n2)CC1` (stereo unspecified) + Cc1[nH]c2ccc(F)cc2c1-c1nc2c3cccnc3c3ncccc3c2[nH]1 showed an IC50 (second compound 0.0316 µM) of 1500 nM, an IC50 (second compound 0.1 µM) of 1330 nM and an IC50 (second compound 0.316 µM) of 1060 nM. The IC50 (second compound 1 µM) was 874 nM, the IC50 (second compound 3.16 µM) was under 31.6 nM and the IC50 (second compound 10 µM) was under 31.6 nM. The viability, T/C [1] was 82.8%, the viability, T/C [2] was 97.5% and the viability, T/C [3] was 87.3%. For the same compound, the viability, T/C [4] was 59.9%, the viability, T/C [5] was 30.1% and the viability, T/C [6] was 33.9%. For the same compound, the viability, T/C [7] was 96.7%, the viability, T/C [8] was 94.5% and the viability, T/C [9] was 84.8%. For the same compound, the viability, T/C [10] was 55%, the viability, T/C [11] was 35.1% and the viability, T/C [12] was 32.4%. For the same compound, the viability, T/C [13] was 96.7%, the viability, T/C [14] was 87.2% and the viability, T/C [15] was 87%. It also gave a viability, T/C [16] of 51.2%, a viability, T/C [17] of 30.3% and a viability, T/C [18] of 32.7%. The viability, T/C [19] was 86.7%, the viability, T/C [20] was 68.2% and the viability, T/C [21] was 82.4%. For the same compound, the viability, T/C [22] was 46.1%, the viability, T/C [23] was 29.7% and the viability, T/C [24] was 24.6%. The viability, T/C [25] was 35.1%, the viability, T/C [26] was 28.4% and the viability, T/C [27] was 23.2%. For the same compound, the viability, T/C [28] was 12.9%, the viability, T/C [29] was 8.53% and the viability, T/C [30] was 10.5%. For the same compound, the viability, T/C [31] was 26.7%, the viability, T/C [32] was 27.6% and the viability, T/C [33] was 18%. The viability, T/C [34] was 12.3%, the viability, T/C [35] was 7.51% and the viability, T/C [36] was 7.22%.
In the case of `CCCS(=O)(=O)Nc1ccc(F)c(C(=O)c2c[nH]c3ncc(-c4ccc(Cl)cc4)cc23)c1F` + Cc1[nH]c2ccc(F)cc2c1-c1nc2c3cccnc3c3ncccc3c2[nH]1, the IC50 (second compound 0.0316 µM) is reported as 7750 nM, the IC50 (second compound 0.1 µM) is reported as 8350 nM and the IC50 (second compound 0.316 µM) is reported as 7780 nM. The IC50 (second compound 1 µM) was 7020 nM, the IC50 (second compound 3.16 µM) was under 31.6 nM and the IC50 (second compound 10 µM) was under 31.6 nM. It also gave a viability, T/C [1] of 108%, a viability, T/C [2] of 108% and a viability, T/C [3] of 114%. The viability, T/C [4] was 111%, the viability, T/C [5] was 124% and the viability, T/C [6] was 32%. It also gave a viability, T/C [7] of 111%, a viability, T/C [8] of 104% and a viability, T/C [9] of 109%. For the same compound, the viability, T/C [10] was 122%, the viability, T/C [11] was 130% and the viability, T/C [12] was 38%. It also gave a viability, T/C [13] of 94.7%, a viability, T/C [14] of 102% and a viability, T/C [15] of 96.2%. For the same compound, the viability, T/C [16] was 126%, the viability, T/C [17] was 117% and the viability, T/C [18] was 33.9%. The viability, T/C [19] was 79.8%, the viability, T/C [20] was 99.4% and the viability, T/C [21] was 92.4%. It also gave a viability, T/C [22] of 109%, a viability, T/C [23] of 111% and a viability, T/C [24] of 28.5%. It also gave a viability, T/C [25] of 50.2%, a viability, T/C [26] of 46.1% and a viability, T/C [27] of 33.2%. For the same compound, the viability, T/C [28] was 30.6%, the viability, T/C [29] was 38.5% and the viability, T/C [30] was 13.8%. For the same compound, the viability, T/C [31] was 44.3%, the viability, T/C [32] was 31.9% and the viability, T/C [33] was 43.8%. It also gave a viability, T/C [34] of 28.8%, a viability, T/C [35] of 28.4% and a viability, T/C [36] of 15.8%.
`COc1ncnc(C2CC2)c1-c1ncc2cnn(Cc3ccc(-c4nc(C(F)(F)F)cn4C(C)C)cc3)c2n1` + Cc1[nH]c2ccc(F)cc2c1-c1nc2c3cccnc3c3ncccc3c2[nH]1 was tested, and the IC50 (second compound 0.0316 µM) was over 10000 nM, the IC50 (second compound 0.1 µM) was over 10000 nM and the IC50 (second compound 0.316 µM) was over 10000 nM. The IC50 (second compound 1 µM) was over 10000 nM, the IC50 (second compound 3.16 µM) was 127 nM and the IC50 (second compound 10 µM) was under 31.6 nM. The viability, T/C [1] was 104%, the viability, T/C [2] was 96.9% and the viability, T/C [3] was 103%. It also gave a viability, T/C [4] of 91.4%, a viability, T/C [5] of 83% and a viability, T/C [6] of 112%. It also gave a viability, T/C [7] of 102%, a viability, T/C [8] of 89.4% and a viability, T/C [9] of 100%. For the same compound, the viability, T/C [10] was 92.1%, the viability, T/C [11] was 89% and the viability, T/C [12] was 105%. The viability, T/C [13] was 93%, the viability, T/C [14] was 85% and the viability, T/C [15] was 96.7%. The viability, T/C [16] was 85.4%, the viability, T/C [17] was 93.1% and the viability, T/C [18] was 110%. It also gave a viability, T/C [19] of 81.9%, a viability, T/C [20] of 88.3% and a viability, T/C [21] of 90.5%. For the same compound, the viability, T/C [22] was 79.6%, the viability, T/C [23] was 91% and the viability, T/C [24] was 79.3%. The viability, T/C [25] was 56.1%, the viability, T/C [26] was 58.8% and the viability, T/C [27] was 37.6%. It also gave a viability, T/C [28] of 43.5%, a viability, T/C [29] of 49.3% and a viability, T/C [30] of 49.7%. For the same compound, the viability, T/C [31] was 39.7%, the viability, T/C [32] was 35.3% and the viability, T/C [33] was 38.2%. For the same compound, the viability, T/C [34] was 18.8%, the viability, T/C [35] was 33.3% and the viability, T/C [36] was 35.7%.
